Reference: patent US12098148B2, “Therapeutic compounds” (C4X Discovery Limited, priority 2018, dated 2024)
Like-named read-outs stand apart in the source and are kept apart here.

Legend:
[1] = tested on: NQO1 mRNA in BEAS-2B cells; assay: Beas2B NQO1 mRNA cell based assay; set-up: species or system human; settings: Homo sapiens, 24 h compound treatment, increase in NQO1 mRNA vs vehicle (0.1% DMSO), read-out: EC50
Outline: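 BEAS-2B human bronchial epithelial cells exposed to compound for 24 h at 37 °C, 5% CO2. NQO1 mRNA measured by one-step TaqMan RT-qPCR on unpurified lysates, normalized to β-actin; relative expression by ΔΔCT method.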

[2] = biological target: human KEAP1 (N-term, residues 321-609) (Homo sapiens, UniProt Q14145); assay: biochemical;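 note: fluorescence polarization competition assay of Kelch domain binding to NRF2, 12-point 1:3 dilution series from 10 µM, read after 1 h at room temperature, floor 10 nM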
Chain of human KEAP1 (N-term, residues 321-609) (Q14145 321-609): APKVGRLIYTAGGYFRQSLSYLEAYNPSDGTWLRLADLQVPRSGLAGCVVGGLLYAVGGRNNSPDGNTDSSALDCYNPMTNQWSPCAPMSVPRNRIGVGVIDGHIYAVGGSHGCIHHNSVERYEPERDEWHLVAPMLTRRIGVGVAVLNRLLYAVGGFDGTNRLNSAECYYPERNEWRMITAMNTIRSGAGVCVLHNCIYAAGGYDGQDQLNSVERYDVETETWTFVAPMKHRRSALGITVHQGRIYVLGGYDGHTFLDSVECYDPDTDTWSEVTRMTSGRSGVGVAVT
Procedure: Biological Assays KEAP1 Kelch Fluorescence Polarization (FP) Assay Method
Inhibition of the Kelch domain-NRF2 interaction was determined using a fluorescence polarization-based competition assay in a black 384-well microplate. Compounds were tested at a starting concentration of 10 μM serially diluted 1:3 to generate a 12-point dose response curve on the Biomek FX robot.
After 1 h at room temperature, fluorescence polarization (excitation 470 nm/emission 530 nm) was measured using an Envision plate reader. IC50 values were determined by fitting the data to a four parameter logistic fit using XLfit or XE Runner within ActivityBase.

Row | Structure (SMILES) | IC50 [2] [nM] | EC50 ([1]; BEAS-2B, 24 h) [nM] | EC50 [1] [nM]
1 | Cn1nnc(COc2ccc(Cl)c3c2[C@@H](CN2CCCC2=O)N(C(=O)[C@@H]2CCCC[C@@H]2C(=O)O)CC3)c1C(F)F [Example 82, (1S,2R)-2-((S)-5-Chloro-8-((5-(difluoromethyl)-1-methyl-1H-1,2,3-triazol-4-yl)methoxy)-1-((2-oxopyrrolidin-1-yl)methyl)-1,2,3,4-tetrahydroisoquinoline-2-carbonyl) cyclohexane-1-carboxylic acid] | 7.7 | 1.3 | –
2 | CC(C)c1nc(COc2ccc(Cl)c3c2[C@@H](CN2CCCC2=O)N(C(=O)[C@@H]2CCCC[C@@H]2C(=O)O)CC3)no1 [Example 83, (1S,2R)-2-((S)-5-Chloro-8-((5-isopropyl-1,2,4-oxadiazol-3-yl)methoxy)-1-((2-oxopyrrolidin-1-yl)methyl)-1,2,3,4-tetrahydroisoquinoline-2-carbonyl) cyclohexane-1-carboxylic acid] | 7.8 | 35 | –
3 | Cc1cnn(C[C@@H]2c3c(OCc4nnn(C)c4C(F)F)ccc(Cl)c3CCN2C(=O)[C@@H]2CCCC[C@@H]2C(=O)O)c1 [Example 84, (1S,2R)-2-((S)-5-chloro-8-((5-(difluoromethyl)-1-methyl-1H-1,2,3-triazol-4-yl)methoxy)-1-((4-methyl-1H-pyrazol-1-yl)methyl)-1,2,3,4-tetrahydroisoquinoline-2-carbonyl)cyclohexane-1-carboxylic acid] | 6.1 | – | 36
4 | O=C(O)[C@H]1CCCC[C@H]1C(=O)N1CCc2c(Cl)ccc(OCc3cncnc3)c2[C@H]1CN1CCCC1=O [Example 85] | 9.9 | 34 | –
5 | O=C(O)[C@H]1CCCC[C@H]1C(=O)N1CCc2c(Cl)ccc(OCc3cccnn3)c2[C@H]1CN1CCCC1=O [Example 88, (1S,2R)-2-((S)-5-Chloro-1-((2-oxopyrrolidin-1-yl)methyl)-8-(pyridazin-3-ylmethoxy)-1,2,3,4-tetrahydroisoquinoline-2-carbonyl) cyclohexane-1-carboxylic acid] | 11 | 78 | –
6 | Cn1nnc2cc(COc3ccc(Cl)c4c3[C@@H](CN3CCCC3=O)N(C(=O)[C@@H]3CCCC[C@@H]3C(=O)O)CC4)ccc21 [Example 90, (1S,2R)-2-((S)-5-Chloro-8-((1-methyl-1H-benzo [d][1,2,3]triazol-5-yl)methoxy)-1-((2-oxopyrrolidin-1-yl)methyl)-1,2,3,4-tetrahydroisoquinoline-2-carbonyl)cyclohexane-1-carboxylic acid] | 9.1 | 8.1 | –
7 | Cn1nnc(COc2ccc(Cl)c3c2[C@@H](CN2CCCC2=O)N(C(=O)[C@@H]2CCCC[C@]2(C)C(=O)O)CC3)c1C(F)F [Example 91, (1S,2R)-2-((S)-5-Chloro-8-((5-(difluoromethyl)-1-methyl-1H-1,2,3-triazol-4-yl)methoxy)-1-((2-oxopyrrolidin-1-yl)methyl)-1,2,3,4-tetrahydroisoquinoline-2-carbonyl)-1-methylcyclohexane-1-carboxylic acid] | 6.1 | 0.21 | –
8 | O=C(O)[C@H]1CCCC[C@H]1C(=O)N1CCc2c(Cl)ccc(OCc3cn4cccnc4n3)c2[C@H]1CN1CCCC1=O [Example 92, (1S,2R)-2-((S)-5-Chloro-8-(imidazo[1,2-a]pyrimidin-2-ylmethoxy)-1-((2-oxopyrrolidin-1-yl)methyl)-1,2,3,4-tetrahydroisoquinoline-2-carbonyl) cyclohexane-1-carboxylic acid] | 15 | 180 | –
9 | Cn1nnc(COc2ccc(Cl)c3c2[C@@H](CN2CCCC2=O)N(C(=O)C2C4CCC(C4)C2C(=O)O)CC3)c1C(F)F (stereo partly drawn) [Example 96, 3-((S)-5-Chloro-8-((5-(difluoromethyl)-1-methyl-1H-1,2,3-triazol-4-yl)methoxy)-1-((2-oxopyrrolidin-1-yl)methyl)-1,2,3,4-tetrahydroisoquinoline-2-carbonyl)bicyclo[2.2.1]heptane-2-carboxylic acid] | 18 | 210 | –
10 | Cn1nnc(COc2ccc(Cl)c3c2[C@@H](CN2CCCC2=O)N(C(=O)C2CCOC2C(=O)O)CC3)c1C(F)F (stereo partly drawn) [Example 97, 3-((S)-5-chloro-8-((5-(difluoromethyl)-1-methyl-1H-1,2,3-triazol-4-yl)methoxy)-1-((2-oxopyrrolidin-1-yl)methyl)-1,2,3,4-tetrahydroisoquinoline-2-carbonyl) tetrahydrofuran-2-carboxylic acid] | 17 | 750 | –

The remaining molecules from weak to strong by IC50 [2], led by results:

Row | IC50 [2] [nM] | Structure (SMILES) | EC50 ([1]; BEAS-2B, 24 h) [nM] | EC50 [1] [nM]
11 | 150 | Cn1nnc(COc2ccc(Cl)c3c2[C@@H](CN2CCCC2=O)N(C(=O)[C@H]2CCC[C@H]2C(=O)O)CC3)c1C(F)F [Example 87, (1R,2S)-2-((S)-5-Chloro-8-((5-(difluoromethyl)-1-methyl-1H-1,2,3-triazol-4-yl)methoxy)-1-((2-oxopyrrolidin-1-yl)methyl)-1,2,3,4-tetrahydroisoquinoline-2-carbonyl)cyclopentane-1-carboxylic acid] | 300 | –
12 | 8.2 | Cn1cnc2cc(COc3ccc(Cl)c4c3[C@@H](CN3CCCC3=O)N(C(=O)[C@@H]3CCCC[C@@H]3C(=O)O)CC4)cnc21 [Example 89, (1S,2R)-2-((S)-5-Chloro-8-((3-methyl-3H-imidazo[4,5-b]pyridin-6-yl)methoxy)-1-((2-oxopyrrolidin-1-yl)methyl)-1,2,3,4-tetrahydroisoquinoline-2-carbonyl) cyclohexane-1-carboxylic acid] | 5.1 | –
13 | 8 | Cc1noc2nc(COc3ccc(Cl)c4c3[C@@H](CN3CCCC3=O)N(C(=O)[C@@H]3CCCC[C@@H]3C(=O)O)CC4)ccc12 [Example 95, (1S,2R)-2-((S)-5-Chloro-8-((3-methylisoxazolo[5,4-b]pyridin-6-yl)methoxy)-1-((2-oxopyrrolidin-1-yl)methyl)-1,2,3,4-tetrahydroisoquinoline-2-carbonyl) cyclohexane-1-carboxylic acid] | 3.7 | –
14 | 7.7 | O=C(O)[C@H]1CCCC[C@H]1C(=O)N1CCc2c(Cl)ccc(OCc3nnc4ccccn34)c2[C@H]1CN1CCCC1=O [Example 94, (1S,2R)-2-((S)-8-([1,2,4]Triazolo[4,3-a]pyridin-3-ylmethoxy)-5-chloro-1-((2-oxopyrrolidin-1-yl)methyl)-1,2,3,4-tetrahydroisoquinoline-2-carbonyl) cyclohexane-1-carboxylic acid] | 7.8 | –
15 | 7.2 | O=C(O)[C@H]1CCCC[C@H]1C(=O)N1CCc2c(Cl)ccc(OCc3noc4ncccc34)c2[C@H]1CN1CCCC1=O [Example 93, (1S,2R)-2-((S)-5-Chloro-8-(isoxazolo[5,4-b]pyridin-3-ylmethoxy)-1-((2-oxopyrrolidin-1-yl)methyl)-1,2,3,4-tetrahydroisoquinoline-2-carbonyl) cyclohexane-1-carboxylic acid] | 15 | –
16 | 5 | Cn1nnc(COc2ccc(Cl)c3c2[C@@H](CN2CCCC2=O)N(C(=O)[C@@H]2CCC[C@@H]2C(=O)O)CC3)c1C(F)F [Example 86, (1S,2R)-2-((S)-5-Chloro-8-((5-(difluoromethyl)-1-methyl-1H-1,2,3-triazol-4-yl)methoxy)-1-((2-oxopyrrolidin-1-yl)methyl)-1,2,3,4-tetrahydroisoquinoline-2-carbonyl)cyclopentane-1-carboxylic acid] | 8.3 | –
